The results in this text go back to ChEMBL document CHEMBL1641386, “Lagunamides A and B: cytotoxic and antimalarial cyclodepsipeptides from the marine cyanobacterium Lyngbya majuscula” (J Nat Prod, 2010).

pIC50: −log10 of the molar value.

Test [1] relates to P388. The test is described as follows: Cytotoxicity against mouse P388 cells after 72 hrs by MTT assay. Format: functional, cell-based. The following applies: P388, 72 h. (In general: Tetrazolium assays rely on reduction of a dye to a coloured formazan, in cell work by metabolically active cells.)
Test [2] relates to Pseudomonas aeruginosa. The test is described as follows: Anti-Swarming activity against Pseudomonas aeruginosa PA01 at 100 ppm after 72 hrs. Format: functional.
For test [3], the system named is Plasmodium falciparum. Put plainly: Antimalarial activity against drug-sensitive Plasmodium falciparum NF54 infected in human erythrocytes after 48 hrs by Liquid scintillation counter. Type of test: functional, organism-based. The following applies: NF54, 48 h.

As usually defined, the pIC50 is the negative decadic logarithm of the IC50, by convention in mol/L. A high value points to a small IC50. For the compound `CC[C@@H](C)[C@@H]1NC(=O)CN(C)C(=O)[C@@H](Cc2ccccc2)N(C)C(=O)[C@H](C)NC(=O)[C@@H]([C@@H](C)CC)OC(=O)/C(C)=C/C[C@H](O)[C@H](C)[C@H]([C@@H](C)CC)OC(=O)[C@H](C)N(C)C1=O` [LAGUNAMIDE A], the pIC50 in test [1] was 8.19; in test [3] it was 6.72. The Activity in test [2] turned out to be 62%.

Consider `C/C=C(\C)[C@@H]1OC(=O)[C@H](C)N(C)C(=O)[C@H]([C@H](C)CC)NC(=O)CN(C)C(=O)[C@@H](Cc2ccccc2)N(C)C(=O)[C@H](C)NC(=O)[C@@H]([C@@H](C)CC)OC(=O)/C(C)=C/C[C@H](O)[C@@H]1C` [LAGUNAMIDE B], for which the pIC50 was 7.69 in test [1] and 6.04 in test [3]. For the same compound, the Activity in test [2] is 56%.
